# Test results reported in patent publication US20080039377A1, “Composition Comprising a Jnk Inhibitor and Cyclosporin” (Applied Research Systems ARS Holding N.V., priority 2004, published 2008).
# System: model of global ischemia in gerbils
# Assay: Neuroprotective effect of a JNK inhibitor combined with cyclosporin in a model of global ischemia in gerbils
# Assay type: in vivo
# Details: for neuroprotective effects (hippocampal damage assessed by histology): compared to vehicle and to JNK inhibitor alone
# Description: In Vivo Assay: Neuroprotective Effect of a JNK Inhibitor Combined with Cyclosporin in a Model of Global Ischemia in Gerbils
# The following assay aims at determining the neuroprotective effect of the test compositions in a model of global ischemia in gerbils, in vivo.
# A total of 73 gerbils (60-80 g; obtained from Elevage Janvier, France) were provided. 4 groups, each consisting of 6-36 animals were formed: • Group 1 (n=36): The animals were administered (ip) a dose of 10 ml/kg of vehicle. • Group 2 (n=6): The animals were administered (ip) a dose of 15 mg/kg of cyclosporine. • Group 3 (n=8): The animals were administered (ip) a dose of 60 or 40 mg/kg of a JNK inhibitor according to formula (I) or (II). • Group 4 (n=7-8): The animals were administered (ip) a dose of the test composition containing 60 or 40 mg/kg of a JNK inhibitor according to formula (I) or (II) together with 15 mg/kg cyclosporine.
# Surgery. Gerbils weighting 60-80 g were anaesthetized with 4% isoflurane (Baxter, Volketswil, Switzerland) in medical air, administered via facemask. The anaesthesia was then maintained using 3% isoflurane until the end of surgery. Bilateral common carotid arteries were dissected and occluded with bulldog clamps for 5 min.
# Histology. Seven days after the onset of occlusion, the animals were killed by decapitation. The brains were frozen at −20° C. in 2-methylbutane and cut in 20 μm-thick sections in a cryocut (Microm HM 5000M, Walldorf, Germany). The sections were stained with cresyl violet acetate and the lesion in the hippocampus were scored within a 5-point scale: • Score 0: No loss of CA1 neurons; • Score 1: Weak damage of CA1 (CA1/Subiculum or CA1/CA3 border); • Score 2: Loss of CA1 neurons (<1/2); • Score 3: Loss of CA1 neurons (>1/2); and • Score 4: Total loss of CA1 neurons and expanding into other areas (CA3, Dentate gyrus, Cortex). The total score was obtained as the sum of scores in the right and left hemispheres.
Compound,neuroprotective effects (hippocampal damage assessed by histology) (JNK inhibitor 60 mg/kg ip with Cyclosporin 15 mg/kg ip),"Histological score Mean ± SEM (Table I, Group 2: JNK inhibitor 0 mg/kg ip, Cyclosporine A 15 mg/kg ip, hippocampal lesion score (sum of both hemispheres, 0-4 each) 7 days after 5 min bilateral carotid occlusion)","Histological score Mean ± SEM (Table I, Group 3: JNK inhibitor 60 mg/kg ip, Cyclosporine A 0 mg/kg, hippocampal lesion score 7 days after occlusion)","Histological score Mean ± SEM (Table I, Group 4: JNK inhibitor 60 mg/kg ip together with Cyclosporine A 15 mg/kg ip, hippocampal lesion score 7 days after occlusion)",neuroprotective effects (hippocampal damage assessed by histology) (JNK inhibitor 40 mg/kg ip with Cyclosporin 15 mg/kg ip),"Histological score Mean ± SEM (Table II, Group 2: JNK inhibitor 0 mg/kg ip, Cyclosporine A 15 mg/kg ip, hippocampal lesion score 7 days after occlusion)","Histological score Mean ± SEM (Table II, Group 3: JNK inhibitor 60 mg/kg ip, Cyclosporine A 0 mg/kg, hippocampal lesion score 7 days after occlusion)","Histological score Mean ± SEM (Table II, Group 4: JNK inhibitor 60 mg/kg ip together with Cyclosporine A 15 mg/kg ip, hippocampal lesion score 7 days after occlusion)"
"N#CC(c1ccnc(NCCc2cccnc2)n1)c1nc2ccccc2s1 (centres unmarked) [Compound A, 1,3-benzothiazol-2-yl(2-{[2-(3-pyridinyl)ethyl]amino}-4-pyrimidinyl)acetonitrile]",increases the neuroprotective effects,6.0 ± 0.0,3.6 ± 0.8,1.3 ± 0.6,,,,
"CC#N.CCCCNC1CCN(S(=O)(=O)c2ccc(CNC(=O)c3ccc(Cl)cc3)s2)CC1 [Compound B, 4-chloro-N-[(5-{[4-(butylamino)piperidin-1-yl]sulfonyl}thien-2-yl)methyl]benzamide acetonitrile]",,,,,increases the neuroprotective effects,6.0 ± 0.0,5.3 ± 0.5,2.1 ± 0.6
